From US9708321B2, “Spiro-quinazolinone derivatives and their use as positive allosteric modulators of mGluR4” (Merck Patent GmbH, priority 2013, dated 2017)
pEC50: −log10 of the molar value.

Biological target: T1, hmGluR4 (Homo sapiens, UniProt Q14833)
T1 construct: host or cells: HEK293T
Experiment: HEK-293 mGluR4 cells cAMP assay with EC20 L-Glutamate (HTRF)
Type: cell-based
Details: positive allosteric activity at EC20 L-Glutamate, 10 μM Forskolin, HEK293T mGluR4 cells, cAMP HTRF; read-out: hrmGluR4/HEK293T-hmGluR4 (EC50)
How it was run: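 PAM mode in mGluR4 HEK293T suspension cells, glutamine-starved overnight; 10 μM forskolin (final) with EC20 L-glutamate (2.3 μM), 2000 cells/well, 30 min at 37 °C. cAMP measured by two-step HTRF after 60 min at room temperature. Basal control EC20 glutamate; EC100 400 μM glutamate (2×).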

T1 sequence (Q14833 33-912): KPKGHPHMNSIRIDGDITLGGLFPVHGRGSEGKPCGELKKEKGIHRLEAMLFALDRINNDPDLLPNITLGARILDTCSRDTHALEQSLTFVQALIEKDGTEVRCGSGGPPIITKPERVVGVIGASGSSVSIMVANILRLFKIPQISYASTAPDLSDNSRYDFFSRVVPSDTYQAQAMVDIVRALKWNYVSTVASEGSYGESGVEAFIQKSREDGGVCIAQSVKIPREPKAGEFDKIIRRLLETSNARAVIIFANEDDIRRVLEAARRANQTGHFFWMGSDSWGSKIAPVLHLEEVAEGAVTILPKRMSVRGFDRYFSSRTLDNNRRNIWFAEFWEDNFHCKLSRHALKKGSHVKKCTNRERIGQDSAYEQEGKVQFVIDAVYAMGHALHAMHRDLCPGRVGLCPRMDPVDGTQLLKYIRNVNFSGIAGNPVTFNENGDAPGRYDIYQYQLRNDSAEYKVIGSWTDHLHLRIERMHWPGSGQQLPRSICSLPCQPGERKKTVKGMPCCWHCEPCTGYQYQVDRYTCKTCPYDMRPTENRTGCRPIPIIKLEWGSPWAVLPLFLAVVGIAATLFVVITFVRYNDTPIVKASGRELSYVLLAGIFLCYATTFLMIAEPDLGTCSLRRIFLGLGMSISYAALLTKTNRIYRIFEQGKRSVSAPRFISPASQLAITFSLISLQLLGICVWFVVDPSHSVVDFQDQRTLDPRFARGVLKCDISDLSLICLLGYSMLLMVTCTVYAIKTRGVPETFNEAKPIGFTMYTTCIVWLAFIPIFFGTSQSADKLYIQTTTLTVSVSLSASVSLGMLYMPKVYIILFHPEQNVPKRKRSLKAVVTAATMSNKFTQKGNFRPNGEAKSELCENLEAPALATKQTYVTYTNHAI

In the case of `COc1ccc(N2C(=O)c3ccccc3NC23CCN(Cc2cc(F)cc(F)c2)CC3)cc1` [Compound 80, 1-(3,5-Difluorobenzyl)-3′-(4-methoxyphenyl)-1′H-spiro[piperidine-4,2′-quinazolin]-4′(3′H)-one], the pEC50 was 5.00 to 6.00.
Work on `COC(=O)c1ccc2c(c1)NC1(CN(Cc3ccccc3)C1)N(c1ccc(OC)cc1)C2=O` [Compound 35, Methyl 1-benzyl-3′-(4-methoxyphenyl)-4′-oxo-3′,4′-dihydro-1′H-spiro[azetidine-3,2′-quinazoline]-7′-carboxylate] yielded a pEC50 greater than 6.00.
With `COC(=O)c1ccc2c(c1)NC1(CCN(Cc3ccccc3)CC1)N(c1ccc(OC)cc1)C2=O` [Compound 15, Methyl 1-benzyl-3′-(4-methoxyphenyl)-4′-oxo-3′,4′-dihydro-1′H-spiro[piperidine-4,2′-quinazoline]-7′-carboxylate] the pEC50 was greater than 6.00.
`COc1ccc(N2C(=O)c3ccc(OC)cc3NC23CCN(Cc2ccc(Cl)s2)CC3)cc1` [Compound 59, 1-((5-Chlorothiophen-2-yl)methyl)-7′-methoxy-3′-(4-methoxyphenyl)-1′H-spiro[piperidine-4,2′-quinazolin]-4′(3′H)-one] showed a pEC50 greater than 6.00.
With `COc1ccc(N2C(=O)c3ccc(F)cc3NC23CCN(Cc2ccc(F)c(F)c2)CC3)cc1` [Compound 23, 1-(3,4-Difluorobenzyl)-7′-fluoro-3′-(4-methoxyphenyl)-1′H-spiro[piperidine-4,2′-quinazolin]-4′(3′H)-one] the pEC50 was greater than 6.00.
In the case of `COc1ccc(N2C(=O)c3ccccc3NC23CN(Cc2ccc(Cl)s2)C3)cc1` [Compound 98, 1-((5-Chlorothiophen-2-yl)methyl)-3′-(4-methoxyphenyl)-1′H-spiro[azetidine-3,2′-quinazolin]-4′(3′H)-one], the pEC50 was 5.00 to 6.00.
`COc1ccc(N2C(=O)c3ccccc3NC23CCN(Cc2ccc(Cl)c(Cl)c2)CC3)cc1` [Compound 54, 1-(3,4-Dichlorobenzyl)-3′-(4-methoxyphenyl)-1′H-spiro[piperidine-4,2′-quinazolin]-4′(3′H)-one] showed a pEC50 greater than 6.00.
In the case of `CCc1ccc(CN2CC3(C2)Nc2ccccc2C(=O)N3c2ccc(OC)cc2)cc1` [Compound 112, 1-(4-Ethylbenzyl)-3′-(4-methoxyphenyl)-1′H-spiro[azetidine-3,2′-quinazolin]-4′(3′H)-one], the pEC50 was 5.00 to 6.00.
Work on `COc1ccc(N2C(=O)c3ccccc3NC23CN(Cc2c(F)cccc2F)C3)cc1` [Compound 95, 1-(2,6-Difluorobenzyl)-3′-(4-methoxyphenyl)-1′H-spiro[azetidine-3,2′-quinazolin]-4′(3′H)-one] yielded a pEC50 of 5.00 to 6.00.
`COc1ccc(N2C(=O)c3ccccc3NC23CN(Cc2ccccc2F)C3)cc1` [Compound 84, 1-(2-Fluorobenzyl)-3′-(4-methoxyphenyl)-1′H-spiro[azetidine-3,2′-quinazolin]-4′(3′H)-one] gave a pEC50 of 5.00 to 6.00.
`COc1ccc(N2C(=O)c3ccccc3NC23CN(Cc2ccc(F)cc2)C3)cc1` [Compound 101, 1-(4-Fluorobenzyl)-3′-(4-methoxyphenyl)-1′H-spiro[azetidine-3,2′-quinazolin]-4′(3′H)-one] was tested, and the pEC50 was 5.00 to 6.00.
In the case of `Cc1cc2cc(N3C(=O)c4ccc(Br)cc4NC34CCN(Cc3ccc(F)c(F)c3)CC4)ccc2o1` [Compound 2, 7′-Bromo-1-(3,4-difluorobenzyl)-3′-(2-methylbenzofuran-5-yl)-1′H-spiro[piperidine-4,2′-quinazolin]-4′(3′H)-one], the pEC50 was greater than 6.00.
Compound `COc1ccc(N2C(=O)c3ccccc3NC23CN(Cc2ccc(Cl)c(Cl)c2)C3)cc1` [Compound 56, 1-(3,4-Dichlorobenzyl)-3′-(4-methoxyphenyl)-1′H-spiro[azetidine-3,2′-quinazolin]-4′(3′H)-one] has a pEC50 greater than 6.00.
`COCCOc1ccc(N2C(=O)c3ccc(Br)cc3NC23CCN(Cc2ccc(F)c(F)c2)CC3)cc1` [Compound 37, 7′-bromo-1-(3,4-difluorobenzyl)-3′-(4-(2-methoxyethoxyl)phenyl)-1′H-spiro[piperidine-4,2′-quinazolin]-4′(3′H)-one] gave a pEC50 greater than 6.00.
With `COc1ccc(N2C(=O)c3ccccc3NC23CN(Cc2cccc4ccccc24)C3)cc1` [Compound 86, 3′-(4-Methoxyphenyl)-1-(naphthalen-1-ylmethyl)-1′H-spiro[azetidine-3,2′-quinazolin]-4′(3′H)-one] the pEC50 was 5.00 to 6.00.
For `COCCOC(=O)c1ccc2c(c1)NC1(CCN(Cc3ccc(F)c(F)c3)CC1)N(c1ccc(OC(F)(F)F)cc1)C2=O` [Compound 99, 2-Methoxyethyl 1-(3,4-difluorobenzyl)-4′-oxo-3′-(4-(trifluoromethoxy)phenyl)-3′,4′-dihydro-1′H-spiro[piperidine-4,2′-quinazoline]-7′-carboxylate], the pEC50 was 5.00 to 6.00.
`CCC(c1ccc(F)c(F)c1)N1CCC2(CC1)Nc1cc(Br)ccc1C(=O)N2c1ccc(OC(F)(F)F)cc1` (stereo not drawn) [Compound 22, 7′-Bromo-1-(1-(3,4-difluorophenyl)propyl)-3′-(4-(trifluoromethoxy)phenyl)-1′H-spiro[piperidine-4,2′-quinazolin]-4′(3′H)-one] was tested, and the pEC50 was greater than 6.00.
Work on `COc1ccc(N2C(=O)c3ccccc3NC23CCN(Cc2cc(Cl)ccc2Cl)CC3)cc1` [Compound 13, 1-(2,5-Dichlorobenzyl)-3′-(4-methoxyphenyl)-1′H-spiro[piperidine-4,2′-quinazolin]-4′(3′H)-one] yielded a pEC50 greater than 6.00.
For `COc1ccc(N2C(=O)c3ccccc3NC23CN(Cc2cccc(Cl)c2)C3)cc1` [Compound 76, 1-(3-Chlorobenzyl)-3′-(4-methoxyphenyl)-1′H-spiro[azetidine-3,2′-quinazolin]-4′(3′H)-one], the pEC50 was 5.00 to 6.00.
Compound `COc1ccc(N2C(=O)c3ccc(-c4ccncc4)cc3NC23CCN(Cc2ccc(F)c(F)c2)CC3)cc1` [Compound 20, 1-(3,4-Difluorobenzyl)-3′-(4-methoxyphenyl)-7′-(pyridin-4-yl)-1′H-spiro[piperidine-4,2′-quinazolin]-4′(3′H)-one] has a pEC50 greater than 6.00.
For `COCCOc1ccc(N2C(=O)c3ccc(F)cc3NC23CN(Cc2ccccc2Cl)C3)cc1` [Compound 124, 1-(2-Chlorobenzyl)-7′-fluoro-3′-(4-(2-methoxyethoxyl)phenyl)-1′H-spiro[azetidine-3,2′-quinazolin]-4′(3′H)-one], the pEC50 was 5.00 to 6.00.
For `COc1ccc(N2C(=O)c3ccccc3NC23CN(Cc2ccccc2)C3)cc1` [Compound 92, 1-Benzyl-3′-(4-methoxyphenyl)-1′H-spiro[azetidine-3,2′-quinazolin]-4′(3′H)-one], the pEC50 was 5.00 to 6.00.
Compound `CCOC(=O)c1ccc2c(c1)NC1(CN(Cc3ccccc3Cl)C1)N(c1ccc(OC(F)(F)F)cc1)C2=O` [Compound 18, Ethyl 1-(2-chlorobenzyl)-4′-oxo-3′-(4-(trifluoromethoxy)phenyl)-3′,4′-dihydro-1′H-spiro[azetidine-3,2′-quinazoline]-7′-carboxylate] has a pEC50 greater than 6.00.
`COc1ccc(N2C(=O)c3ccc(-c4ccc(CN(C)C)o4)cc3NC23CCN(Cc2ccc(F)c(F)c2)CC3)cc1` [Compound 117, 1-(3,4-Difluorobenzyl)-7′-(5-((dimethylamino)methyl)furan-2-yl)-3′-(4-methoxyphenyl)-1′H-spiro[piperidine-4,2′-quinazolin]-4′(3′H)-one] was tested, and the pEC50 was 5.00 to 6.00.
With `COc1ccc(N2C(=O)c3ccc(-c4cccnc4)cc3NC23CCN(Cc2ccc(F)c(F)c2)CC3)cc1` [Compound 40, 1-(3,4-Difluorobenzyl)-3′-(4-methoxyphenyl)-7′-(pyridin-3-yl)-1′H-spiro[piperidine-4,2′-quinazolin]-4′(3′H)-one] the pEC50 was greater than 6.00.
For `COc1ccc(N2C(=O)c3ccc(Br)cc3OC23CCN(Cc2ccc(F)c(F)c2)CC3)cc1` [Compound 108, 7-Bromo-1′-(3,4-difluorobenzyl)-3-(4-methoxyphenyl)spiro[benzo[e][1,3]oxazine-2,4′-piperidin]-4(3H)-one], the pEC50 was 5.00 to 6.00.
For `O=C1c2ccc(N3CCOCC3)cc2NC2(CCN(Cc3ccc(F)c(F)c3)CC2)N1c1ccc(OC(F)(F)F)cc1` [Compound 21, 1-(3,4-Difluorobenzyl)-7′-morpholino-3′-(4-(trifluoromethoxy)phenyl)-1′H-spiro[piperidine-4,2′-quinazolin]-4′(3′H)-one], the pEC50 was greater than 6.00.
For `O=C1c2ccc(Br)cc2NC2(CCN(Cc3ccnc4ccccc34)CC2)N1c1ccc(OC(F)(F)F)cc1` [Compound 47, 7′-Bromo-1-(quinolin-4-ylmethyl)-3′-(4-(trifluoromethoxy)phenyl)-1′H-spiro[piperidine-4,2′-quinazolin]-4′(3′H)-on], the pEC50 was greater than 6.00.
For `CC(c1ccc(F)cc1)N1CC2(C1)Nc1cc(F)ccc1C(=O)N2c1ccc(OC(F)(F)F)cc1` (stereo not drawn) [Compound 82, 7′-Fluoro-1-(1-(4-fluorophenyl)ethyl)-3′-(4-(trifluoromethoxy)phenyl)-1′H-spiro[azetidine-3,2′-quinazolin]-4′(3′H)-one], the pEC50 was 5.00 to 6.00.
`COc1ccc(N2C(=O)c3ccccc3NC23CN(Cc2ccc4ccccc4c2)C3)cc1` [Compound 90, 3′-(4-Methoxyphenyl)-1-(naphthalen-2-ylmethyl)-1′H-spiro[azetidine-3,2′-quinazolin]-4′(3′H)-one] showed a pEC50 of 5.00 to 6.00.
For `CCOC(=O)c1ccc2c(c1)NC1(CN(C(C)c3ccccc3Cl)C1)N(c1ccc(OC(F)(F)F)cc1)C2=O` (stereo not drawn) [Compound 30, Ethyl 1-(1-(2-chlorophenyl)ethyl)-4′-oxo-3′-(4-(trifluoromethoxy)phenyl)-3′,4′-dihydro-1′H-spiro[azetidine-3,2′-quinazoline]-7′-carboxylate], the pEC50 was greater than 6.00.
Work on `COc1ccc(N2C(=O)c3ccccc3NC23CCN(Cc2ccc(F)cc2)CC3)cc1` [Compound 114, 1-(4-Fluorobenzyl)-3′-(4-methoxyphenyl)-1′H-spiro[piperidine-4,2′-quinazolin]-4′(3′H)-one] yielded a pEC50 of 5.00 to 6.00.
Compound `COc1ccc(N2C(=O)c3ccc(OC)cc3NC23CCN(Cc2ccc(F)c(F)c2)CC3)cc1` [Compound 39, 1-(3,4-Difluorobenzyl)-7′-methoxy-3′-(4-methoxyphenyl)-1′H-spiro[piperidine-4,2′-quinazolin]-4′(3′H)-one] has a pEC50 greater than 6.00.
